Activity calls are given as the source filed them.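 The calls were made as follows: active = compounds giving half or more protection of infected cells from virus-caused growth loss, again on retest; inactive = the rest.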
System: CEM cells HIV-1 protection, formazan growth assay
Assay: NCI AIDS Antiviral Assay
Settings: for IC50: measured here: growth of uninfected CEM cells
Outline: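 Human CEM cells, uninfected and HIV-1-infected, exposed to five drug concentrations; growth measured by soluble formazan assay and scored as percent protection from infection, with protecting compounds retested.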

| Structure (SMILES) | EC50 [µM] | IC50 [µM] | outcome |
| --- | --- | --- | --- |
| Cc1cc(Cl)ccc1NC(=O)C(=O)Cc1ccc([N+](=O)[O-])c([N+](=O)[O-])c1CC(=O)C(=O)Nc1ccc(Cl)cc1C | > 309 | 129 | – |
| S=C(N/N=C/c1ccco1)NC12CC3CC(CC(C3)C1)C2 | – | – | inactive |
| CC(C)SC(C)(NC(=O)C1C(C)(C)CCC1(C)C)C(=O)O (stereo not drawn) | > 200 | > 200 | – |
| COc1cc(O)c2c(c1)C(=O)C1=C(C2=O)C(O)C[C@@](C)(O)C1 (stereo partly drawn) | – | – | inactive |
| OCCN1CCN(CC/C=C2\c3ccccc3Sc3ccc(Cl)cc32)CC1 | > 200 | 10.2 | – |
| O=C1C(=Cc2ccc(F)cc2)C(=O)c2ccccc21 | > 10.7 | > 10.7 | – |
| COc1csc([C@H]2CCC3[C@@H]4CC=C5C[C@@H](OC(=O)CCC(=O)O)CC[C@]5(C)C4CC[C@@]32C)n1 (stereo partly drawn) | > 51.3 | 32.4 | – |
| CC(C)OC1OC(CO)C(O)CC1n1cc(F)c(=O)[nH]c1=O (stereo not drawn) | > 200 | 24.5 | – |
| COc1ccc(NC(=O)Oc2ccc3c(C)cc(=O)oc3c2)c(OC)c1 | > 52.5 | > 52.5 | – |
| C=C(C(=O)O)C1CC[C@@]2(C)CC(O)CC(=C)C2C1 (stereo partly drawn) | > 200 | > 200 | – |
| N#C/C(=C\c1ccc(Br)cc1)c1nc(-c2cc3ccccc3oc2=O)cs1 | 83.2 | > 100 | – |
| CCOC(=O)CC(C#N)(CC(=O)OCC)C(=O)OCC | – | – | inactive |
| CN(C)CC1CCC/C(=C\c2ccc(Cl)cc2)C1=O (stereo not drawn) | > 20 | 0.977 | – |
| OC1NC2Nc3ccccc3NC2NC1O (stereo not drawn) | > 200 | > 200 | – |
| COc1ccc(C2SCC(=O)N2NC(=O)c2ccc(NC(C)=O)cc2)cc1 (stereo not drawn) | > 35.5 | > 35.5 | – |
| Cc1ccsc1/C=N/Nc1cnccn1 | > 200 | 75.9 | – |
| O=C1C(c2ccccc2)C2C=CC(C2)N1O (stereo not drawn) | > 200 | > 200 | – |
| O=[N+]([O-])c1cccc(-c2oc(C=Nc3ccccc3)c([N+](=O)[O-])c2-c2cccc([N+](=O)[O-])c2)c1 | > 56.2 | > 56.2 | – |
| CSCC(NP1(=O)SC(NN=C(C)C)=NC1(C)C)C(=O)O (stereo not drawn) | > 708 | > 708 | – |
| Cn1cc2c(=O)n3ncn(-c4ccc(Br)cc4)c3nc2n1 | > 200 | > 200 | – |
| Cc1cc2c3c(c1)S(=O)(=O)c1cc(Cl)ccc1N3CCC2 | > 200 | > 200 | – |
| CC(/C=C/c1ccccc1)=N/NS(=O)(=O)c1ccc(N)cc1 | > 115 | > 115 | – |
| O=C(O)/C=C\C(=O)Nc1ccccc1O | > 200 | > 200 | – |

| Structure (SMILES) | EC50 [µM] | IC50 [µM] | outcome |
| --- | --- | --- | --- |
| CC(=O)C(=Cc1ccc(N(C)C)cc1)C(C)=O | > 562 | 112 | – |
| NC(=O)NNC/C(Cl)=C(\Cl)C(=O)O | > 1100 | 191 | – |
| COc1cccc(/C=C2\Cc3ccccc3C2=O)c1 | > 4.17 | > 4.17 | – |
| CC(=O)Oc1ccc(-c2cc3ccccc3oc2=O)cc1 | > 200 | 28.2 | – |
| CCOC(=O)C1=C(C)N(NC(N)=O)C2(N)N(NC(N)=O)C(C)=C(C(=O)OCC)C12C#N (stereo not drawn) | > 575 | 427 | – |
| COc1ccccc1NC(=S)Nc1cccc(C)n1 | 16.6 | 61.7 | – |
| N#CC1=C(N)OC(c2ccc([N+](=O)[O-])cc2)C1(C#N)C#N (stereo not drawn) | > 200 | 10 | – |
| CC1(CO)CCCC1NCCNC1CCCC1(C)CO (stereo not drawn) | > 182 | 107 | – |
| ClCCCCOC1CCCCO1 (stereo not drawn) | – | – | inactive |
| COc1ccc(C2(O)c3ccccc3C(=O)N(C)C2(O)c2ccc(OC)cc2)cc1 (stereo not drawn) | > 200 | 37.2 | – |
| CO[C@H](C(=O)O[C@H]1C(=O)N2CC[C@@H]3CCC[C@H]1C32C)c1ccccc1 (stereo partly drawn) | > 724 | 437 | – |
| COC1=C(C(=O)OC(C)(C)C)C23CCCCCCCCCCC2(C(C(=O)OC(C)(C)C)=C(OC)C3C(=O)OC(C)(C)C)C1C(=O)OC(C)(C)C (stereo not drawn) | > 25.1 | 23.4 | – |
| CN(C(=O)C12C3C4C5C3C1(C(=O)O)C5C42)C(C)(C)C (stereo not drawn) | > 955 | > 955 | – |
| COc1cc(Nc2cnc3cc(F)c(F)cc3n2)cc(OC)c1OC | > 200 | > 200 | – |
| Cc1cc(-c2c(O)c3c(ccc4ccccc43)oc2=O)no1 | > 200 | 93.3 | – |
| Cc1ccc(NC(=O)CC(=O)n2nc(C)c(N=Nc3ccccc3Cl)c2C)cc1 | – | – | inactive |
| CCCCCCCCC(O)c1ccc(/C=C\C(O)CCCC(=O)O)s1 (stereo not drawn) | > 63.1 | > 63.1 | – |
| Cn1cc([N+](=O)[O-])cc1C(=O)Nc1ccc(S(=O)(=O)O)c2cc(S(=O)(=O)O)ccc12 | > 501 | > 501 | – |
| Cc1cn(C2CC(N(O)Cc3ccccc3)C(CO)O2)c(=O)[nH]c1=O (stereo not drawn) | > 200 | > 200 | – |
| Cc1ccc2nc(-c3ccccc3[N+](=O)[O-])[nH]c2c1 | > 269 | 57.5 | – |
| ON1CCc2c([nH]c3ccccc23)C1c1ccc(Cl)cc1 (stereo not drawn) | – | – | inactive |
| O=c1c2sc3ccccc3sc=2c(=O)c2c(Cl)c(Cl)c(Cl)c(Cl)c12 | > 126 | 58.9 | – |
| CCOC(=O)NC1=NCC(C)(C)S1 | – | – | inactive |

| Structure (SMILES) | EC50 [µM] | IC50 [µM] | outcome |
| --- | --- | --- | --- |
| O=C1C=C(O)C(=Cc2c(O)cc(O)cc2O)C(O)=C1 | – | – | inactive |
| Cc1ccc(SCC(CF)OCn2cnc3c(=O)[nH]c(N)nc32)cc1 (stereo not drawn) | > 20 | > 20 | – |
| c1csc(-c2ccsc2-c2ccsc2)c1 | > 200 | 87.1 | – |
| COc1cc(C(=O)NCCS(=O)(=O)O)cc(OC)c1OC | > 724 | 631 | – |
| CCCCCCCCCCCCOS(=O)(=O)O | > 871 | 195 | – |
| COc1ccc(S(=O)(=O)OC)cc1C(=O)c1cc(S(=O)(=O)OC)ccc1OC | > 23.4 | > 23.4 | – |
| CO[C@@H]1C[C@H]2[C@@H]3CC[C@H]([C@H](C)CO)[C@@]3(C)CC[C@@H]2[C@@]2(C)CC[C@H]3C[C@]312 | > 174 | 81.3 | – |
| CC1NC(=O)C2=C1C(=O)NC(=O)C2 (stereo not drawn) | 40.7 | 195 | – |
| N#CCC(=O)Nn1c(CC#N)nnc1Cc1ccccc1 | – | – | inactive |
| COc1cc2c(cc1OC)C(Cl)C(c1ccc(Cl)cc1)=C2Cl (stereo not drawn) | – | – | inactive |
| C[C@]12CC[C@H]3[C@@H](CCC4=C/C(=N/OCCN5CCCCC5)CC[C@@]43C)[C@@H]1CC[C@@H]2O | > 200 | 4.17 | – |
| COc1ccc(-c2coc3c4c(ccc3c2=O)OCO4)cc1OC | – | – | inactive |
| Cc1ccc(/C=C/C(=O)c2sc(-c3nc(C)c(C(=O)/C=C/c4ccc(C)cc4)s3)nc2C)cc1 | > 38.9 | > 38.9 | – |
| N#C/C(=C\c1ccc(O)c(O)c1)C(=O)NCCCCCCNC(=O)/C(C#N)=C/c1ccc(O)c(O)c1 | > 200 | > 200 | – |
| Cn1ccoc1=Nc1ccc(Cl)c(Cl)c1 | > 200 | > 200 | – |
| O=C(OCC1OC2OC(c3ccccc3)(n3ccc4c([N+](=O)[O-])ccnc43)OC2C1OC(=O)c1ccccc1)c1ccccc1 (stereo not drawn) | > 200 | 145 | – |
| CCOC(Cc1c(N)[nH]c(=S)[nH]c1=O)OCC | > 200 | > 200 | – |
| COC(=N)CCCl | > 200 | > 200 | – |
| CCCCCCCCCC(=O)OCC1OC(n2cc(F)c(=O)[nH]c2=O)C(NC(=O)OCc2ccccc2)C(OC(=O)CCCCCCCCC)C1O (stereo not drawn) | > 9.77 | > 9.77 | – |
| O=C(O)c1ccc2cc(O)ccc2c1 | > 200 | > 200 | – |
| CNC(=O)N1CN(c2ccccc2)C2(CCN(CCCC3(c4ccc(F)cc4)OCCO3)CC2)C1=O | > 200 | 38.9 | – |
| CC(=O)OCC1OC(n2c(C)c(N=Nc3ccc(Cl)cc3)c(C)c(C#N)c2=S)C(OC(C)=O)C(OC(C)=O)C1OC(C)=O (stereo not drawn) | > 200 | > 200 | – |
| CCCCN(C(=O)NCCC)S(=O)(=O)c1ccc(Cl)cc1 | – | – | inactive |

| Structure (SMILES) | EC50 [µM] | IC50 [µM] | outcome |
| --- | --- | --- | --- |
| Cc1cc(C)c(C#N)c(SSC(Cl)(Cl)Cl)n1 | > 200 | 32.4 | – |
| Cn1c2ccc([N+](=O)[O-])cc2c(=O)c2c(O)cc(O)cc21 | > 200 | 19.1 | – |
| O=C1C(=O)N(C2CCCCC2)C(=S)N1C1CCCCC1 | > 200 | > 200 | – |
| O=C(CC(=O)n1nc(-c2ccccc2)c(N=Nc2ccc(Cl)cc2)c1-c1ccccc1)Nc1ccc(Cl)cc1 | > 18.2 | > 18.2 | – |
| CCC(=O)NC(NNS(=O)(=O)c1ccc(C)cc1)(C(F)(F)F)C(F)(F)F | > 200 | 35.5 | – |
| Cn1c(=O)cc(NNc2ccc(Cl)c(Cl)c2)[nH]c1=O | > 200 | 3.09 | – |
| C[n+]1ccc(-c2nc(-c3cc[n+](C)cc3)nc(-c3cc[n+](C)cc3)n2)cc1 | > 200 | 77.6 | – |
| Nc1ccccc1/C(O)=C1/CCOC1=O | > 7.08 | > 7.08 | – |
| COc1cccc(N2C(=O)[C@H]3CC(C)c4c([nH]c5ccccc45)[C@H]3C2=O)c1 (stereo partly drawn) | > 35.5 | > 35.5 | – |
| COC(=O)Cn1cnc2c(Cl)nc(Nc3ccccc3)nc21 | > 200 | 63.1 | – |
| CC12CP(=O)(O)CC1C2(Cl)Cl (stereo not drawn) | > 200 | > 200 | – |
| CN(C)c1ccc(-c2c(C#N)c(S)n(NS(=O)(=O)c3ccccc3)c(=O)c2C#N)cc1 | > 200 | 8.32 | – |
| Cc1cn2cc(-c3cccs3)nc2s1 | > 200 | 87.1 | – |
| O=C(OC1CN2CCC1CC2)N(c1ccccc1)c1ccccc1 (stereo not drawn) | > 200 | > 200 | – |
| COC1=C(C2=C(OC)C(=O)c3cc4c(c(O)c3C2=O)C(=O)OC(C)C4)C(=O)c2c(cc3c(c2O)C(=O)OC(C)C3)C1=O (stereo not drawn) | – | – | inactive |
| COc1cc2ccc(C(=O)O)cc2cc1OC | – | – | inactive |
| NC(=O)c1nc(-c2ccc(Cl)c(Cl)c2)nc2ccccc12 | – | – | inactive |
| Oc1ccccc1-c1nnc2n1N=C(c1ccc(-c3ccccc3)cc1)CS2 | > 200 | 15.5 | – |
| CC(C)(C)OC(=O)NC(CSCc1ccc(C(=O)c2ccccc2)cc1)C(=O)N1CCN(CCCCN2c3ccccc3Sc3cc(N=[N+]=[N-])ccc32)CC1 (stereo not drawn) | > 200 | > 200 | – |
| CCc1ccccc1NC(=O)/C(N=O)=C(/C)O | > 151 | > 151 | – |
